# Results taken from PMC3601784 (Chromatographia, 2012).
# Tests used:
# [1] = Solubility of PHOME in assay buffer; type: physicochemical; settings: BIS–TRIS buffer with 0.1 g/L Tween 80, in the superloop
# Human recombinant sEH = molecular target: T1, Human recombinant sEH (Homo sapiens, UniProt P34913); assay: LC-BCD/MS; type: biochemical; settings: mixture of sEHi 6, sEHi 1, sEHi 7, diclofenac and phenylbutazone separated by LC
# T1 sequence (P34913 1-555): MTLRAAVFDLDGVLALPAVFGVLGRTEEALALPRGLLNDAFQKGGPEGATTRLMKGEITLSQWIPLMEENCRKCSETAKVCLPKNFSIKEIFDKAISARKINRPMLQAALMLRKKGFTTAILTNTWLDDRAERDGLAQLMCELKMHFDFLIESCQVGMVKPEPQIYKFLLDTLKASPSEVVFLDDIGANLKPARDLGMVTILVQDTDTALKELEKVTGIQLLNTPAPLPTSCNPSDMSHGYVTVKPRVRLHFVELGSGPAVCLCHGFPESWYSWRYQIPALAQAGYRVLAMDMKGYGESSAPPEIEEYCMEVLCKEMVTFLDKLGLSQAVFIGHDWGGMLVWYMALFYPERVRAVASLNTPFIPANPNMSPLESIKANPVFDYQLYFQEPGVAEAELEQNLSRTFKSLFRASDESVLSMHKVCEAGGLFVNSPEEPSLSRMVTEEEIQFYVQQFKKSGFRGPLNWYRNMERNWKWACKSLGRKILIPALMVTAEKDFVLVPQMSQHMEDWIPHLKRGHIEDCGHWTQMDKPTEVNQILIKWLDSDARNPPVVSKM
limit of solubility [1],sEH activity (BCD peak) in a standard mixture (Human recombinant sEH),SMILES
~30 µM,–,"COc1ccc2cc(C(C#N)OC(=O)CC3OC3c3ccccc3)ccc2c1 (centres unmarked) [PHOME, (3-phenyl-oxiranyl)-acetic acid cyano-(6-methoxy-naphthalen-2-yl)-methyl ester]"
–,without sEH activity,CCCCC1C(=O)N(c2ccccc2)N(c2ccccc2)C1=O [phenylbutazone]
